Data published in the NIST ThermoML archive (doi:10.1016/j.jct.2018.02.001).

Columns and labels:
[1] = 101.33 kPa, Liquid, Vibrating tube method
[2] = mn = molality of the nth substance listed, in mol/kg; settings: 100 kPa, Liquid, Vibrating tube method

CCCCn1cc[n+](CCCC)c1.[Br-] [1,3-dibutylimidazolium bromide]
[1]
Settings | mass density [kg/m3]
293.15 K | 1197.07
298.15 K | 1193.75
303.15 K | 1190.32
308.15 K | 1186.85
313.15 K | 1183.34
318.15 K | 1180.06
323.15 K | 1176.52

CCCCn1cc[n+](CCCC)c1.[Br-] [1,3-dibutylimidazolium bromide] + O
mass density [kg/m3], [2]
Settings | m1 = 0.01076 | m1 = 0.01516 | m1 = 0.02165 | m1 = 0.02575 | m1 = 0.03042 | m1 = 0.0354 | m1 = 0.04047
293.15 K | 998.64 | 998.84 | 999.13 | 999.32 | 999.54 | 999.77 | 1000
298.15 K | 997.46 | 997.65 | 997.93 | 998.11 | 998.31 | 998.52 | 998.74
303.15 K | 995.91 | 996.08 | 996.4 | 996.57 | 996.78 | 996.98 | 997.16
308.15 K | 994.12 | 994.3 | 994.63 | 994.79 | 995 | 995.2 | 995.35

CCn1cc[n+](CC)c1.[Br-] [1,3-diethyl-1H-imidazolium bromide]
[1]
Settings | mass density [kg/m3]
293.15 K | 1355.06
298.15 K | 1351.21
303.15 K | 1347.51
308.15 K | 1343.75
313.15 K | 1339.95
318.15 K | 1336.13
323.15 K | 1332.29

CCn1cc[n+](CC)c1.[Br-] [1,3-diethyl-1H-imidazolium bromide] + O
mass density [kg/m3], [2]
Settings | m1 = 0.01477 | m1 = 0.01845 | m1 = 0.02167 | m1 = 0.0271 | m1 = 0.03151 | m1 = 0.035 | m1 = 0.04375 | m1 = 0.04513 | m1 = 0.05018
293.15 K | 998.92 | 999.11 | 999.27 | 999.55 | 999.78 | 999.96 | 1000.42 | 1000.49 | 1000.75
298.15 K | 997.72 | 997.91 | 998.07 | 998.35 | 998.57 | 998.75 | 999.19 | 999.26 | 999.51
303.15 K | 996.18 | 996.36 | 996.52 | 996.8 | 997.03 | 997.2 | 997.63 | 997.7 | 997.94
308.15 K | 994.23 | 994.41 | 994.58 | 994.87 | 995.11 | 995.29 | 995.71 | 995.77 | 995.97

CCCCCCCCCCCC[n+]1ccn(CCCC)c1.[Br-] [1-butyl-3-dodecyl-1H-imidazolium bromide]
[1]
Settings | mass density [kg/m3]
293.15 K | 1059.3
298.15 K | 1055.99
303.15 K | 1052.6
308.15 K | 1049.18
313.15 K | 1045.73
318.15 K | 1042.27
323.15 K | 1038.83

CCCCCCCCCCCC[n+]1ccn(CCCC)c1.[Br-] [1-butyl-3-dodecyl-1H-imidazolium bromide] + O
mass density [kg/m3], [2]
Settings | 293.15 K | 298.15 K | 303.15 K
m1 = 0.0055 | 998.33 | 997.09 | 995.65
m1 = 0.0082 | 998.38 | 997.13 | 995.66
m1 = 0.0092 | 998.4 | 997.15 | 995.68
m1 = 0.0149 | 998.51 | 997.26 | 995.7
m1 = 0.0217 | 998.64 | 997.39 | 995.82
m1 = 0.0252 | 998.71 | 997.46 | 995.9
m1 = 0.0317 | 998.83 | 997.58 | 996
m1 = 0.0337 | 998.87 | 997.62 | 996.04
m1 = 0.0399 | 999 | 997.74 | 996.15
m1 = 0.0479 | 999.15 | 997.88 | 996.3
m1 = 0.0503 | 999.19 | 997.92 | 996.34

CCCC[n+]1ccn(CC)c1.[Br-] [1-butyl-3-ethylimidazolium bromide]
[1]
Settings | mass density [kg/m3]
293.15 K | 1263.23
298.15 K | 1259.4
303.15 K | 1255.95
308.15 K | 1252.45
313.15 K | 1248.92
318.15 K | 1245.45
323.15 K | 1241.93

CCCCCC[n+]1ccn(CCCC)c1.[Br-] [1-butyl-3-hexyl-1H-imidazolium bromide]
[1]
Settings | mass density [kg/m3]
293.15 K | 1148.8
298.15 K | 1145.49
303.15 K | 1142.11
308.15 K | 1138.66
313.15 K | 1135.17
318.15 K | 1131.7
323.15 K | 1128.22

CCCCCC[n+]1ccn(CCCC)c1.[Br-] [1-butyl-3-hexyl-1H-imidazolium bromide] + O
mass density [kg/m3], [2]
Settings | m1 = 0.0051 | m1 = 0.0109 | m1 = 0.01511 | m1 = 0.01999 | m1 = 0.02536 | m1 = 0.03025 | m1 = 0.03503 | m1 = 0.03996 | m1 = 0.0452 | m1 = 0.05
293.15 K | 998.4 | 998.6 | 998.8 | 999 | 999.22 | 999.42 | 999.62 | 999.82 | 1000.03 | 1000.23
298.15 K | 997.22 | 997.41 | 997.6 | 997.79 | 998.01 | 998.2 | 998.39 | 998.58 | 998.79 | 998.978
303.15 K | 995.73 | 995.88 | 996.06 | 996.24 | 996.44 | 996.64 | 996.82 | 997.01 | 997.21 | 997.38
308.15 K | 994.04 | 994.09 | 994.2 | 994.38 | 994.6 | 994.81 | 994.99 | 995.17 | 995.35 | 995.51
